Data: patent US4891319A, “Protection of proteins and the like” (Quadrant Bioresources Limited, priority 1985, dated 1990)

How the values were obtained:
[1] = system: Rh D antigen; experiment: titrated haemagglutination assay of dried human IgM anti-Rh D antibody; type: cell-based; settings: for % activity retained in HA titre: dried antibody, sugar at 5% final concentration
Description: (§1) They can then be stored at room temperature indefinitely.
3. Trehalose preserves 100% of the antibody activity. A test of five sugars all used at 5% final concentration in a titrated haemagglutination assay gave the following results.
(§2) An additional titration was done to establish whether there is an optimum concentration of trehalose for preservation. The antibodies tested were mouse monoclonal IgM anti A antibody, a mouse monoclonal IgM anti B antibody and a human monoclonal IgM anti Rh antibody used above. They were diluted to an appropriate starting concentration as follows: mouse anti A 1:10, mouse anti B 1:10, human anti Rh (to a final concentration of 20μg/ml). These were titrated 1:3 across a 96 well microtitre plate in Dulbecco's phosphate buffered saline (PBS) in a final volume of 50μl. To each horizontal 8 well row was added 50μl of trehalose at concentrations ranging from 10% w/v to 0.1% w/v. The wells were then dried at 37° overnight. Next day the wells were rehydrated with 100μl distilled water containing buffer sufficient to restore isotonicity. Then 50μl aliquots were transferred to a v-bottom microtitre plate and 25μl of 1% washed human red cells carrying the appropriate blood group antigens added and mixed. Haemagglutination titres were read after 2-3 hours at room temperature. […] With the anti Aantibody any trehalose concentration above 1% preserved maximal activity and with the anti B antibody any concentration above 0.5% preserved maximum activity.

[2] = system: rat IgG; experiment: indirect haemagglutination titre of K237 antiserum dried on matrices and eluted; type: cell-based; settings: dried on Whatman No. 1 cellulose paper
Protocol: A number of different matrices were examined for use as a trehalose support. They include pure cellulose paper (Whatman No. 1 filter paper), glass fibre paper (What man GF/A and GF/C papers), polyurethane sponge foam and porous polyethylene sheet. These matrices were soaked in trehalose dissolved in distilled water at various concentrations from 10% down to 1% and dried at 37°. […] Various sera were applied to the paper and dried at 37°. After various periods of storage at 37+, samples were eluted with distilled water or normal saline; usually used in a volume 2-4 times that of the original serum sample so that their potency could be directly compared with fresh non-dried samples of the same sera.
K237, a sheep antiserum against rat IgG, was dried on to 10% trehalose-impregnated cellulose paper, glass fibre paper and porous polyethylene sheet and stored for 7 days at 37° C.
The paper or sheet was eluted with 4 volumes of normal saline and titrated in an indirect haemagllutination assay for its ability to agglutinate DA strain rat erythrocytes coated with a monoclonal antibody (JN2/85) against the class 1 antigens expressed on the erythrocyte membranes.
The same antiserum was then tested by drying on the Whatman No. 1 cellulose paper in the presence of various sugars and in the absence of sugar.

[3] = system: horseradish peroxidase; experiment: Preservation of dried horseradish peroxidase activity; type: biochemical; settings: dried with or without trehalose; compared with alkaline phosphatase
[4] = molar basis; cited from earlier work
[5] = system: R-phycoerythrin; experiment: Fluorescence of R-phycoerythrin after drying with or without trehalose; type: physicochemical, marine Rhodophyte; settings: trehalose-containing samples, stored in the dark for 10 months
Protocol: The phycobiliprotein R-phycoerythrin was purified from a marine Rhodophyte. This brilliantly fluorescent red protein was blotted onto nitrocellulose membrane or glass fibre filter paper in phosphate buffer with and without 10% w/v added trehalose and dried at room temperature.
R-phycoerythrin at 5 mg/ml was dried at 37° on glass fibre filter paper (Whatman GF/C), cellulose filter paper (Whatman No. 1) or on nitrocellulose membrane (Schleicher & Schull 0.45μ pore size) in the presence of 5% trehalose in solution and in its absence. In the absence of trehalose the spots of dried R-phycoerythrin changed colour to a purplish red and lost >90% of their fluorescence intensity.

[6] = system: A blood group substance; experiment: titrated haemagglutination assay of dried mouse IgM anti A antibody; type: cell-based, human; settings: dried at 37° overnight
Protocol: as §1, §2

[7] = system: B blood group substance; experiment: titrated haemagglutination assay of dried mouse IgM anti B antibody; type: cell-based, human; settings: dried at 37° overnight
Protocol: as §1, §2

[8] = system: rat IgG immunoglobulin; experiment: indirect agglutination titre of dried or fresh sheep antiserum K237; type: cell-based
Protocol: A sheep antiserum to rat IgG immunoglobulin (K237) was titrated in a 96 well flat bottom microtitre plate as 1:3 steps (25μl serum in 50μl PBS). 50μl of 5% w/v trehalose in D.W was then added and the plate dried at 37° in a warm room for 48 hr.
The wells were reconstituted with 100μl distilled water. 50μl of the contents of each well were transferred to v bottom microtitre plates, DA rate erythrocytes were washed ×3 in saline and sensitized by incubation for 2 hr at RT with tissue culture supernatant of the monoclonal antibody R3/13 HLK which is specific for the A^a class 1 transplantation antigen on DA erythrocytes. The red cells were then washed x3 in saline and resuspended at 1% v/v in PBS +1% BSA. The sensitized rat erythrocytes were added. At the same time fresh K237 serum was titrated as above as a positive non-dried control.
The capacity for the dried and fresh serum to cause indirect agglutination of the red cells sensitized by the rat antibody R3/13 was then read.

[9] = system: rat lymphocytes; experiment: Fluorescence microscopy of labelled rat lymphocytes; type: cell-based; settings: dried with 10% added trehalose
Description: Fluorescence microscopy using R-phycoerythrin as the fluorochrome was previously very inefficient because of fluorescence fading in aqueous mountants. This can be prevented by drying of the preparation and mounting in a non-polar mountant such as Gurr's Fluoromount, but drying destroys more than 90% of the fluorescence of R-phycoerythrin. This is prevented by drying in the presence of trehalose in the final buffer.
The anti CD4 monoclonal antibody W3/25 was coupled with biotin-linker-arm N-hydroxysuccinimide ester and used in saturating doses to label the T helper subset of rat lymphocytes. These labelled cells were then detected with a second stage staining using a streptavidin-R-phycoerythrin conjugate. After a final wash the cells were divided into four aliquots and one was examined in the FACS to illustrate correct labelling with these reagents. […] Smears were made and dried and then mounted in Fluoromount. The fourth aliquot was mounted wet in PBS. All three preparations were examined in a Zeiss photomicroscope II with Ploem optics.

[10] = system: alkaline phosphate from calf intestine; experiment: Preservation of dried alkaline phosphatase activity; type: biochemical; settings: dried at 37° with 5% trehalose, 4 weeks at room temperature
Protocol: The mammalian enzyme alkaline phosphate from calf intestine was serially diluted in phosphate buffered saline (PBS) and added to the wells of a NUNC Immunoplate. After overnight incubation to bind the enzyme to the plastic surface, the wells were washed, shaken free of liquid, and dried at 37° in the presence or absence of 5% trehalose in distilled water. […] At the end of this time the wells were rehydrated with distilled water and substrate added. A positive control consisted of fresh dilutions of the enzyme. The activity of one enzyme was measured by the standard test of […] p-nitrophenylphosphate and monitoring the optical density at 405 nm.

[11] = system: guinea pig serum complement; experiment: CH50 assay, preservation of dried serum complement; type: cell-based
Protocol: Guinea pig serum was prepared fresh and frozen in aliquots at -196° until use. As target cells, washed sheep erythrocytes (SRBC) which had been stored in Alsever's solution for up to 2 weeks were incubated with the bovine monoclonal anti-Forrsman antibody 94A1-AZA for 1 hr at 4° and then washed in complement fixation diluent (CFD). Freshly thawed guinea pig serum was diluted in CFD where required in flat bottom microtitre plate (NUNC, Denmark) and trehalose added at various concentrations. […] For the CH50 assay (P.J. Lachmann and M.J. Hobart in "Handbook of Experimental Immunology" ed. D.M. Weir, Blackwell 1978), dried or fresh complement was titrated out in a U bottom microtitre plate and sensitised SRBC added to a final concentration of 2%. […] The endpoint was measured as the cup in which 50% of the erythrocytes remained as a button.

[12] = system: fixed red cells; experiment: Drying of antigen- or antibody-coupled fixed red blood cells; type: cell-based; settings: dried in the presence of trehalose
Description: Upon rehydration the coupled, fixed red cells can be resuspended to form a perfect single cell suspension which then behaves as a fresh red cell suspension does in haemagglutination assays.

[13] = system: cellular organelles; settings: loss of bound water; cited from earlier work
[14] = system: haemoglobin; experiment: Spectral properties and gas exchange of dried haemoglobin; type: physicochemical; settings: oxy and carboxy forms dried in the presence of trehalose
Description: Many macromolecular functions require mobility of the macromolecule e.g. antibodies have to physically move into close proximity to their antigen in order for binding to occur through electrostatic and hydrophobic interactions. The same is true of enzymes binding their substrates. Minor molecular motion is also required for other macromolecular functions. Thus haemoglobin undergoes rotation and movement of certain amino acids during the reversible binding of oxygen and carbon dioxide. None of this molecular mobility is observed in the dry state.
In contrast, the fluorescence of R-phycoerythrin involves "movement" only on the sub atomic level. Absorption of light energy at low wavelengths e.g. (488 nm) causes electrons in the chromophores to shift to higher energy orbits. Fluorescence at longer wavelengths is due to the emission of photons when these electrons jump back to lower energy orbits. […] This method is therefore of great interest in the application of biological (and synthetic) macromolecules in new electronic applications. Examples include proton and electron pumping (such as is mediated, on exposure to light, by bacteriorhodopsin and rhodopsin). […]

Molecule: OC[C@H]1O[C@H](O[C@H]2[C@H](O)[C@@H](O)C(O)O[C@@H]2CO)[C@H](O)[C@@H](O)[C@@H]1O (mixture of isomers) [maltose, reference compound]
- % activity retained in HA titre [1]: 11.1%

Molecule: OC[C@H]1O[C@H](OC[C@H]2O[C@H](O[C@]3(CO)O[C@H](CO)[C@@H](O)[C@@H]3O)[C@H](O)[C@@H](O)[C@@H]2O)[C@H](O)[C@@H](O)[C@H]1O [raffinose, reference compound]
- % activity retained in HA titre [1]: 3.7%
- difference from the untreated paper [2]: No significant difference

Molecule: horseradish peroxidase
- retention of enzyme activity [3]: Identical results

Molecule: O=C[C@H](O)[C@@H](O)[C@H](O)[C@H](O)CO [glucose, reference compound]
- % activity retained in HA titre [1]: 1.2%

Molecule: R Phycoerythrin
- brightness relative to fluorescein [4]: 20 times

Molecule: OC[C@H]1O[C@H](O[C@H]2O[C@H](CO)[C@@H](O)[C@H](O)[C@H]2O)[C@H](O)[C@@H](O)[C@@H]1O [Trehalose, α-D-glucopyranosyl-α-D-glucopyranoside]
- fluorescence after storage [5]: without loss of fluorescence
- % activity retained in HA titre [1]: 100%
- maximum preservation of activity ([1]; human antibody, 2.5% final trehalose, dried at 37° overnight): 100%
- change in titre ([1]; human antibody, 5% final trehalose concentration): slight decrease in titre
- final concentration of trehalose at maximum preservation ([1]; human antibody, at the drying stage): 2.5%
- trehalose concentration preserving maximal activity [6]: above 1%
- trehalose concentration preserving maximum activity [7]: above 0.5%
- Titre (cups) ([8]; Dried + Trehalose (5% w/v, 37°, 48 hr)): 7
- antibody activity of whole serum preserved ([8]; dried with trehalose): 100%
- brilliantly fluorescent cells [9]: 75%
- fading of fluorescent cells [9]: did not fade
- fading of labelled cells on repeated examination ([9]; several weeks): no detectable fading
- retention of enzyme activity [10]: Full retention of activity
- complement activity preserved ([11]; 25% serum, trehalose 0.15M and above): 100%
- complement activity preserved ([11]; 50% normal serum, trehalose 0.22M and above): 100%
- prevention of loss of complement activity ([11]; dried with trehalose and reconstituted): completely prevented
- inhibition by high concentrations of trehalose ([11]; up to 0.5M, any concentration of serum): not inhibitory
- function of antibody or antigen coupled to fixed red cell membrane [12]: completely preserves the function of the antibody or antigen
- preservation and resuspension of fixed red cells [12]: completely preserves the fixed red cells themselves
- protection of cellular organelles compared with other carbohydrates [13]: significantly superior to other carbohydrates

Molecule: haemoglobin
- spectral properties after drying [14]: retain their spectral properties

Molecule: OC[C@H]1O[C@@](CO)(O[C@H]2O[C@H](CO)[C@@H](O)[C@H](O)[C@H]2O)[C@@H](O)[C@@H]1O [sucrose, reference compound]
- % activity retained in HA titre [1]: 11.1%
- difference from the untreated paper [2]: No significant difference
